Data as given in the supplement of paper PMC10307832.

Experiments:
Test in all cases: relative viability (nuclei count vs DMSO), 5 days (fraction); higher = more cells survive
CAL-12T = test system: CAL-12T
Method in brief: (§1)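 Five library-drug doses in √10 steps were combined with a fixed anchor-drug dose, or a single drug was given alone, by pin tool to lung cancer cell lines in 1536-well plates the day after seeding. Nuclei were stained and counted after 5 days. Relative viability is the nuclei count in treated wells over that in vehicle wells, taken as the median of duplicate plates.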

EKVX = test system: EKVX
Method in brief: as §1

H3255 = test system: H3255
Method in brief: as §1

HCC-15 = test system: HCC-15
Method in brief: as §1

HCC-827 = test system: HCC-827
Method in brief: as §1

LCLC-97TM1 = test system: LCLC-97TM1
Method in brief: as §1

LK-2 = test system: LK-2
Method in brief: as §1

NCI-H1355 = test system: NCI-H1355
Method in brief: as §1

NCI-H1563 = test system: NCI-H1563
Method in brief: as §1

NCI-H1650 = test system: NCI-H1650
Method in brief: as §1

NCI-H1734 = test system: NCI-H1734
Method in brief: as §1

NCI-H1755 = conditions: first compound 0.04 µM
Method in brief: as §1

Cc1sc2c(c1C)C(c1ccc(Cl)cc1)=N[C@@H](CC(=O)OC(C)(C)C)c1nnc(C)n1-2 [JQ1] + N=C(N)NC(=N)NCCc1ccccc1 [Phenformin] (partner 250 µM)
relative viability (CAL-12T; first compound 0.04 µM): 0.522 | relative viability (CAL-12T; first compound 0.1265 µM): 0.443 | relative viability (CAL-12T; first compound 0.4 µM): 0.42 | relative viability (CAL-12T; first compound 1.265 µM): 0.253 | relative viability (CAL-12T; first compound 4 µM): 0.284 | relative viability (EKVX; first compound 0.04 µM): 0.257 | relative viability (EKVX; first compound 0.1265 µM): 0.257 | relative viability (EKVX; first compound 0.4 µM): 0.27 | relative viability (EKVX; first compound 1.265 µM): 0.243 | relative viability (EKVX; first compound 4 µM): 0.218 | relative viability (H3255; first compound 0.04 µM): 0.349 | relative viability (H3255; first compound 0.1265 µM): 0.348 | relative viability (H3255; first compound 0.4 µM): 0.35 | relative viability (H3255; first compound 1.265 µM): 0.36 | relative viability (H3255; first compound 4 µM): 0.36 | relative viability (HCC-15; first compound 0.04 µM): 0.458 | relative viability (HCC-15; first compound 0.4 µM): 0.318 | relative viability (HCC-15; first compound 1.265 µM): 0.189 | relative viability (HCC-15; first compound 4 µM): 0.19 | relative viability (HCC-827; first compound 0.04 µM): 0.395 | relative viability (HCC-827; first compound 0.4 µM): 0.349 | relative viability (HCC-827; first compound 1.265 µM): 0.468 | relative viability (HCC-827; first compound 4 µM): 0.449 | relative viability (LCLC-97TM1; first compound 0.04 µM): 0.423 | relative viability (LCLC-97TM1; first compound 0.1265 µM): 0.42 | relative viability (LCLC-97TM1; first compound 0.4 µM): 0.446 | relative viability (LCLC-97TM1; first compound 1.265 µM): 0.328 | relative viability (LCLC-97TM1; first compound 4 µM): 0.203 | relative viability (LK-2; first compound 0.04 µM): 0.298 | relative viability (LK-2; first compound 0.1265 µM): 0.379 | relative viability (LK-2; first compound 0.4 µM): 0.21 | relative viability (LK-2; first compound 1.265 µM): 0.101 | relative viability (LK-2; first compound 4 µM): 0.147 | relative viability (NCI-H1355; first compound 0.04 µM): 0.45 | relative viability (NCI-H1355; first compound 0.1265 µM): 0.473 | relative viability (NCI-H1355; first compound 0.4 µM): 0.433 | relative viability (NCI-H1355; first compound 1.265 µM): 0.388 | relative viability (NCI-H1355; first compound 4 µM): 0.326 | relative viability (NCI-H1563; first compound 0.04 µM): 0.672 | relative viability (NCI-H1563; first compound 0.1265 µM): 0.571 | relative viability (NCI-H1563; first compound 0.4 µM): 0.682 | relative viability (NCI-H1563; first compound 1.265 µM): 0.596 | relative viability (NCI-H1563; first compound 4 µM): 0.568 | relative viability (NCI-H1650; first compound 0.04 µM): 0.309 | relative viability (NCI-H1650; first compound 0.1265 µM): 0.304 | relative viability (NCI-H1650; first compound 0.4 µM): 0.182 | relative viability (NCI-H1650; first compound 1.265 µM): 0.118 | relative viability (NCI-H1650; first compound 4 µM): 0.137 | relative viability (NCI-H1734; first compound 0.04 µM): 0.326 | relative viability (NCI-H1734; first compound 0.1265 µM): 0.312 | relative viability (NCI-H1734; first compound 0.4 µM): 0.336 | relative viability (NCI-H1734; first compound 1.265 µM): 0.251 | relative viability (NCI-H1734; first compound 4 µM): 0.23 | relative viability (NCI-H1755): 0.687
